Reference: US8669250B2, “Derivatives of aryl-{4-halogeno-4-[aminomethyl]-piperidin-1-yl}-methanone, their method of preparation and their use as medicinal products” (Pierre Fabre Medicament, priority 2009, dated 2014)
Counter-ions that a name gives are not always drawn.

How the values were obtained:
5-HT1A receptor = target: T1, 5-HT1A receptor (Rattus norvegicus, UniProt P19327); test: Affinity for 5-HT1A receptors, shift of (3H)8-OH-DPAT in rat cerebral cortex; type: binding; conditions: mean of at least 3 experiments, read-out: 5-HT1A affinity (pKi) (converted)
T1 construct: the cerebral cortex is sampled and homogenized in 20 volumes of buffer; from tissue; host or cells: rat cerebral cortex homogenate (membranes)
T1 sequence (P19327 1-422): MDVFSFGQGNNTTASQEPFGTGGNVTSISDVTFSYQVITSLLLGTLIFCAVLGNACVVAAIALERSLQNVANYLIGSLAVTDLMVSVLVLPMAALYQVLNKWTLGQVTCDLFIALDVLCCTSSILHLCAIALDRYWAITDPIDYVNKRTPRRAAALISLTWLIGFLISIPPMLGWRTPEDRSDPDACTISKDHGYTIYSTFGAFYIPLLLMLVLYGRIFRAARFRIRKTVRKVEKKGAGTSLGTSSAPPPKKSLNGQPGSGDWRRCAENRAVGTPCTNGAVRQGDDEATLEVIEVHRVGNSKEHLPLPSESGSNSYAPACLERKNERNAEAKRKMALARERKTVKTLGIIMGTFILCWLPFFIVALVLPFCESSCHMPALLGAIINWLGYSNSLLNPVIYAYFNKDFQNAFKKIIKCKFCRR
Method: (§1) The affinity of the compounds of the invention for the rat 5-HT1A receptor was measured conventionally from competitive experiments with a radiolabelled 5-HT1A agonist. […] This test is widely used since it is predictive of antidepressant action in man. Analgesic activity was determined after intra-peritoneal administration to rats, both with a physiological pain model and a pathological pain model. By physiological pain, the inventors designate pain whose origin is a lesion and/or organic ill-function such as pain caused by excessive nociceptive stimuli.
The in vitro affinity of the compounds of the invention for the 5-HT1A receptors was determined by measuring the shift of (^3H)8-OH-DPAT (agonist of 5HT1A receptors labelled with tritium, TRK 850; 160-240 Ci/mmole).
The study on binding with the 5-HT1A receptor was conducted as described in Naunyn-Schmiedeberg's Arch. Pharmaco. 1991, 343, 106. For these experiments, rat cerebral cortices were used. After unfreezing the brain in Tris-HCl buffer 50 mmol, pH=7.40 at 25° C., the cerebral cortex is sampled and homogenized in 20 volumes of buffer held at 4° C. The homogenate is centrifuged at 39000 g for 10 min, the centrifuge residue is suspended in the same volume of buffer and again centrifuged. After further suspension under the same conditions, the homogenate is incubated for 10 min at 37° C. then again centrifuged. The final residue is suspended in cold reaction buffer Tris-HCl 50 mmol, pH=7.40 at 25° C. containing […] of pargyline, 4 mmol of CaCl2 and 0.10% ascorbic acid. The final concentration of the tissue in the incubation medium is 10 mg/tube.
The reaction tubes contain 0.10 mL of (^3H)8-OH-DPAT (final […]), 0.10 mL of product to be tested 6-7 concentrations and 0.80 mL of tissue. Non-specific binding is defined using […] of 5-HT. The reaction tubes are incubated at 23° C. for 30 min then their content is rapidly vacuum filtered through Whatman GF/B filters, the tubes are rinsed with 2×5 mL of Tris-HCl buffer 50 mmol, pH=7.4 at 25° C. Radioactivity is collected on the filter and analyzed by liquid scintillation by adding 4 mL of scintillating liquid (Emulsifier Safe, Packard). All experiments were performed in triplicate.
The inhibition constants (Ki) of the products of the invention are estimated from shift experiments using the non-linear regression programme RADLIG version 4 by EBDA (Equilibrium Binding Data Analysis Biosoft, Cambridge, UK, Mc Pherson, 1985). The dissociation constant of the radioactive ligand used for calculations is […] for (^3H)8-OH-DPAT. The values of pKi (−log Ki) are given in the form mean±SEM of at least 3 experiments.

[1] = system: rats, formol-induced pain; test: Formol test (analgesic activity, physiological pain); type: in vivo; conditions: rat, i.p.
Description: (§2) The physiological pain model chosen by the inventors to determine the analgesic activity of the compounds of the invention uses excess nociceptive stimuli (injection of formol) to cause a painful sensation in animal (Eur. J. Pharmacol. 2001, 421, 109). For the so-called pathological pain model in animal, the inventors chose to use pain induced by the injection of a cytotoxic agent such as oxaliplatine (Eur. J. Cancer 2007, 2658).
The rats (Male Sprague Dawley rats (ICO: OFA SD [IOPS], Iffa Credo, France) are placed in plexiglass observation boxes above an angled mirror so as to facilitate observation of the hind paws. After thirty minutes of habituation, the animals are given an injection of formol diluted to 2.5% on the plantar surface of the right hind paw. The injection of formol produces behavioural responses which occur in two phases:
an acute phase, from 0 to 5 min after injection of the formol, corresponding to stimulation of receptors specialized in the transmission of pain messages to the spinal cord.
a late phase which occurs 20 to 30 min after the injection. This phase corresponds to stimulation of receptors by inflammatory mediators and/or to hyper-excitability of the dorsal horn induced during the first phase. This late phase therefore involves central sensitization.
For the study of the compounds of the invention we selected two expressions of painful behaviour and chose two periods of observation which correspond to the two pain phases (i.e. 0-5 min and 22.5-27.5 min). During these two 5-min periods the animals are observed every 30 seconds and are given scores for the following behaviours: paw licking or not of the injected paw, and lifting or non-lifting of the injected paw. Ten observations give a maximum score of 10 for each parameter for each of the 2 phases. The products of the invention are administered via intraperitoneal route 15 min before the injection of formol.
(§3) Quantification of the effect of the compounds of the invention on the forced swimming tests and on the formol test is conducted by one-factor variance analysis between groups (ANOVA analysis) followed by a multiple comparison test (Dunnett's test) versus control animals. The ED50 value is calculated using Litchfield and Wilcoxon analysis from the percentage of responding animals.
For this test, the animals are observed every 30 seconds during two periods of 5 min. The following behaviours are noted: paw licking or not of the injected paw, and paw lifting or not of the injected paw. Ten observations give a maximum score of 10 for each parameter for each of the 2 phases, measuring either paw lifting or paw licking. This test was also performed by comparison with administration of the vehicle (veh) alone.

[2] = system: rats, oxaliplatine-induced allodynia; test: Oxaliplatine test, von Frey (analgesic activity, pathological pain); type: in vivo; conditions: rat, i.p., even at a dose of 2.5 mg/kg
Description: as §2
The rats (Male Sprague Dawley rats (ICO: OFA SD [IOPS], Iffa Credo, France) are tested a first time on the Friday to determine their mechanical sensitivity threshold (von Frey test). They are then given an intra-peritoneal injection (i.p.) of oxaliplatine (anticancer treatment causing neuropathic pain in patients) at a dose of 8 mg/kg. This dose in rat induces neuropathy which translates as mechanical hypersensitivity (allodynia) which develops 3 days after the injection with a peak on day five. For the study of the compounds of the invention, the animals are re-tested on day five, 15 min after administration of the compound via intra-peritoneal route.
The pressure force is then measured (in g) at which withdrawal of the paw of the animals is observed.

[3] = system: rats, forced swimming immobility; test: Forced swimming test (antidepressant activity); type: in vivo; conditions: rat, oral, even at a dose of 40 mg/Kg
Method: as §1
The rats (Male Sprague Dawley rats (ICO: OFA SD [IOPS], Iffa Credo, France), are placed in a cylinder (45 cm high and 20 cm in diameter) filled with water at 25° C.±0.5 up to a height of 17 cm. This depth allows rats to swim or float without their tail touching the bottom of the cylinder.
24 h before the test day, the rats are placed in the cylinder for 15 min, a lapse of time after which they no longer attempt to escape and remain immobile. On the test day the animals are replaced in the cylinder and the duration of animal immobility is measured by direct observation followed by verification of an audiovisual recording for 5 min. The products of the invention are administered by oral route 60 min before the test. A rat is considered to be immobile if it allows itself to float and only makes small movements to remain on the surface. Two rats are observed at the same time.
as §3

SMILES | melting point | Ki (5-HT1A receptor) | other results
O=C(c1ccc(F)c(Cl)c1)N1CCC(F)(CNCC2CNc3cccc(F)c3O2)CC1 (stereo not drawn) (as salt: fumarate) [Compound 1b, (3-Chloro-4-fluoro-phenyl)-{4-fluoro-4-[(3,4-dihydro-2H-8-fluoro-1,4-benzoxazine-2-methanamino)-methyl]-piperidin-1-yl}-methanone] | 100 °C |  | 
COc1cccc2c1OC(CNCC1(F)CCN(C(=O)c3ccc(F)c(Cl)c3)CC1)CN2 (stereo not drawn) [Compound 1e, (3-Chloro-4-fluoro-phenyl)-{4-fluoro-4-[(3,4-dihydro-2H-8-methoxy-1,4-benzoxazine-2-methanamino)-methyl]-piperidin-1-yl}-methanone] |  | 1.51 nM | 
N#Cc1cccc2c1OC(CNCC1(F)CCN(C(=O)c3ccc(F)c(Cl)c3)CC1)CN2 (stereo not drawn) [Compound 1f, (3-Chloro-4-fluoro-phenyl)-{4-fluoro-4-[(3,4-dihydro-2H-8-cyano-1,4-benzoxazine-2-methanamino)-methyl]-piperidin-1-yl}-methanone] |  | 0.646 nM | 
NC(=O)c1cccc2c1OC(CNCC1(F)CCN(C(=O)c3ccc(F)c(Cl)c3)CC1)CN2 (stereo not drawn) [Compound 1h, (3-Chloro-4-fluoro-phenyl)-{4-fluoro-4-[(3,4-dihydro-2H-8-carbamoyl-1,4-benzoxazine-2-methanamino)-methyl]-piperidin-1-yl}-methanone] |  | 0.741 nM | 
O=C1CC2(CCCC2)CC(=O)N1CCCCN1CCN(c2ncccn2)CC1 [buspirone, reference compound] |  |  | dose on and after which paw lifting is affected ([1]; acute phase and late phase): ≥ 2.5 mg/kg; dose on and after which paw licking is inhibited ([1]; late phase): ≥ 2.5 mg/kg; analgesia, in words [2]: does not produce any significant analgesia; effect on animal immobility [3]: no effect on animal immobility

The next lines start with results.

melting point | Ki (5-HT1A receptor) | SMILES | other results
125 °C |  | CN1CC(CNCC2(F)CCN(C(=O)c3ccc(F)c(Cl)c3)CC2)Oc2ccccc21 (stereo not drawn) (as salt: fumarate) [Compound 1g, (3-Chloro-4-fluoro-phenyl)-{4-fluoro-4-[(3,4-dihydro-2H-4-methyl-1,4-benzoxazine-2-methanamino)-methyl]-piperidin-1-yl}-methanone] | 
175 °C |  | O=C(c1ccc(F)c(Cl)c1)N1CCC(F)(CNCC2CNc3ccccc3O2)CC1 (stereo not drawn) (as salt: hydrochloride) [Compound 1a3, (3-Chloro-4-fluoro-phenyl)-{4-fluoro-4-[(3,4-dihydro-2H-1,4-benzoxazine-2-methanamino)-methyl]-piperidin-1-yl}-methanone] | 
185 °C |  | O=C(c1ccc(F)c(Cl)c1)N1CCC(F)(CNCC2CNc3ccccc3O2)CC1 (single isomer, unassigned; (-)) (as salt: fumarate) [Compound 1a1, (−)-(3-Chloro-4-fluoro-phenyl)-{4-fluoro-4-[(3,4-dihydro-2H-1,4-benzoxazine-2-methanamino)-methyl]-pipéridin-1-yl}-methanone] | 
 | 0.631 nM | O=C(c1ccc(F)c(Cl)c1)N1CCC(F)(CNCC2CNc3cccc(F)c3O2)CC1 (stereo not drawn) [Compound 1b, (3-Chloro-4-fluoro-phenyl)-{4-fluoro-4-[(3,4-dihydro-2H-8-fluoro-1,4-benzoxazine-2-methanamino)-methyl]-piperidin-1-yl}-methanone] | 
 | 1.23 nM | Cc1cccc2c1OC(CNCC1(F)CCN(C(=O)c3ccc(F)c(Cl)c3)CC1)CN2 (stereo not drawn) [Compound 1c, (3-Chloro-4-fluoro-phenyl)-{4-fluoro-4-[(3,4-dihydro-2H-8-methyl-1,4-benzoxazine-2-methanamino)-methyl]-piperidin-1-yl}-methanone] | 
 | 2.29 nM | O=C(c1ccc(F)c(Cl)c1)N1CCC(F)(CNCC2CNc3cccc(Cl)c3O2)CC1 (stereo not drawn) [Compound 1d, (3-Chloro-4-fluoro-phenyl)-{4-fluoro-4-[(3,4-dihydro-2H-8-chloro-1,4-benzoxazine-2-methanamino)-methyl]-piperidin-1-yl}-methanone] | 
 | 0.794 nM | CN1CC(CNCC2(F)CCN(C(=O)c3ccc(F)c(Cl)c3)CC2)Oc2ccccc21 (stereo not drawn) [Compound 1g, (3-Chloro-4-fluoro-phenyl)-{4-fluoro-4-[(3,4-dihydro-2H-4-methyl-1,4-benzoxazine-2-methanamino)-methyl]-piperidin-1-yl}-methanone] | 
